Literature values in patent US20190027771A1, “ACID GAS REGENERABLE BATTERY” (Commonwealth Scientific and Industrial Research Organisation, priority 2015, published 2019).
Like-named read-outs stand apart in the source and are kept apart here.

Assays:
[1] = for Anode reaction potential E: reduction of the metal-ammine complex to the metal and NH3; for Cathode reaction potential E: reduction of the free metal ion to the metal

Compound: NCCCCCO [5-Amino-1-pentanol]
- pKa (Table 2): 10.5
- pKa (Table 3): 10.5

Compound: C[C@H](N)C(=O)O [L-Alanine]
- pKa (Table 2): 9.69

Compound: CC1CCNCC1 [4-methylpiperidine]
- pKa (Table 2): 11.27

Compound: N.N.N.N.[Hg+2] [[Hg(NH3)4]^2+]
- Anode reaction potential E [1]: E = +0.283 V

Compound: N.N.N.N.[Cd+2] [[Cd(NH3)4]^2+]
- Anode reaction potential E [1]: E = −0.622 V

Compound: CNCC(=O)O [Sarcosine]
- pKa (Table 2): 10.05

Compound: [Cu+2] [Cu^2+]
- Cathode reaction potential E [1]: E = +0.34 V

Compound: [Hg+2] [Hg^2+]
- Cathode reaction potential E [1]: E = +0.8535 V

Compound: N.N.N.N.[Pd+2] [[Pd(NH3)4]^2+]
- Anode reaction potential E [1]: E = 0.0 V

Compound: [Pt+2] [Pt^2+]
- Cathode reaction potential E [1]: E = +1.188 V

Compound: [Ni+2] [Ni^2+]
- Cathode reaction potential E [1]: E = −0.257 V

Compound: N.N.N.N.[Zn+2] [[Zn(NH3)4]^2+]
- Anode reaction potential E [1]: E = −1.04 V

Compound: NCCCCCCN [hexamethylenediamine]
- pKa (Table 2): 10.9
- pKa (Table 3): 10.9

Compound: N.N.[Ag+] [[Ag(NH3)2]^+]
- Anode reaction potential E [1]: E = +0.37 V

Compound: N.N.N.N.[Co+2] [[Co(NH3)4]^2+]
- Anode reaction potential E [1]: E = −0.422 V

Compound: [Zn+2] [Zn^2+]
- Cathode reaction potential E [1]: E = −0.763 V

Compound: N[C@@H](CCC(=O)O)C(=O)O [Glutamic acid]
- pKa (Table 2): 9.47

Compound: CC(O)CNCC(C)O (stereo not drawn) [bis(2-hydroxypropyl)-amine, bis(2-hydroxypropyl)amine]
- pKa (Table 2): 9.1

Compound: NCc1cccc(CN)c1 [m-Xylylenediamine]
- pKa (Table 2): 9.2

Compound: CCCCCN [Amylamine]
- pKa (Table 2): 10.81

Compound: N.N.N.N.N.N.[Pt+2] [[Pt(NH3)6]^2+]
- Anode reaction potential E [1]: E = +0.144 V

Compound: [Cd+2] [Cd^2+]
- Cathode reaction potential E [1]: E = −0.403 V

Compound: NCCOCCO [2-(2-Aminoethoxy)-ethanol, 2-(2-Aminoethoxy)ethanol]
- pKa (Table 2): 9.3

Compound: [Co+2] [Co^2+]
- Cathode reaction potential E [1]: E = −0.277 V

Compound: 1,3 Diaminopropane
- pKa (Table 2): 10.4
- pKa (Table 3): 10.4

Compound: Pyrrolidine
- pKa (Table 2): 11.35

Compound: NCCCn1ccnc1 [1-(3-aminopropyl)-imidazole, 1-(3-aminopropyl)imidazole]
- pKa (Table 2): 9.6

Compound: [Ag+] [Ag^+]
- Cathode reaction potential E [1]: E = +0.80 V

Compound: N.N.N.N.[Cu+2] [[Cu(NH3)4]^2+]
- Anode reaction potential E [1]: E = −0.04 V

Compound: C[C@@H](O)[C@H](N)C(=O)O [L-Threonine]
- pKa (Table 2): 9.1

Compound: N.N.N.N.N.N.[Ni+2] [[Ni(NH3)6]^2+]
- Anode reaction potential E [1]: E = −0.49 V

Compound: [Pd+2] [Pd^2+]
- Cathode reaction potential E [1]: E = +0.915 V
